# From patent publication US10918610B2, “Compounds and methods of promoting myelination” (Case Western Reserve University, priority 2017, dated 2021)
# Tests used:
# [1] = biological target: T1, EBP (Mus musculus, UniProt P70245); assay: GC/MS-based sterol profiling in EpiSC-derived OPCs (EBP inhibition); format: cell-based
# T1 construct: endogenous in cells; host or cells: mouse EpiSC-derived oligodendrocyte progenitor cells (EpiSC5 line)
# T1 sequence (P70245 1-230): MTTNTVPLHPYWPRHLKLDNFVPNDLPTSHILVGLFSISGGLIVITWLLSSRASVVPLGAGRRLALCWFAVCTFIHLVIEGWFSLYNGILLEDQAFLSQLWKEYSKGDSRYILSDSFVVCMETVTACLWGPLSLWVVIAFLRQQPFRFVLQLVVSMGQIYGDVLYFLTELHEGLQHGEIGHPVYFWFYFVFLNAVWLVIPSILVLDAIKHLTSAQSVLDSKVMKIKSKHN
# Description: EpiSC-derived OPCs were plated at one million cells per well in PDL- and laminin-coated six well plates with differentiation media. After 24 hours, cells were dissociated with Accutase, rinsed with saline, and cell pellets were frozen. For sterol analyses, cells were lysed in methanol (Sigma-Aldrich) with agitation for 30 minutes and cell debris removed by centrifugation at 10,000 rpm for 15 min. Cholesterol-d7 standard (25,26,26,26,27,27,27-^2H7-cholesterol, Cambridge Isotope Laboratories) was added before drying under nitrogen stream and derivatization with 55 al of bis(trimethylsilyl)trifluoroacetamide/trimethylchlorosilane to form trimethylsilyl derivatives. Following derivatization at 60° C. for 20 minutes, 1 μl was analyzed by gas chromatography/mass spectrometry using an Agilent 5973 Network Mass Selective Detector equipped with a 6890 gas chromatograph system and a HP-5MS capillary column ([…]). Samples were injected in splitless mode and analyzed using electron impact ionization. Ion fragment peaks were integrated to calculate sterol abundance, and quantitation was relative to cholesterol-d7. The following m/z ion fragments were used to quantitate each metabolite: cholesterol-d7 (465), FF-Mas (482), cholesterol (368), zymostenol (458), zymosterol (456), desmosterol (456, 343), 7-dehydrocholesterol (456, 325), lanosterol (393), lathosterol (458), 14-dehydrozymostenol (456). […] After derivatization, 1 al was analyzed by gas chromatography/mass spectrometry using an Agilent 5973 Network Mass Selective Detector equipped with a 6890 gas chromatograph system and a HP-5MS capillary column ([…]). Samples were analyzed in full scan mode using electron impact ionization; ion fragment peaks were integrated to calculate sterol abundance, and quantitation was relative to cholesterol-d7. The following ion fragments were used to quantitate each metabolite: cholesterol-d7 (465), cholesterol (368)(Sigma Aldrich), zymostenol (458), All standards were obtained from Avanti Polar Lipids unless otherwise indicated. […]
# [2] = system: newly myelinated fibers within the spinal cord; assay: LPC-induced focal demyelination in the dorsal column of the spinal cord; format: in vivo, C57BL/6 female mice; conditions: 25 mg/kg intraperitoneally daily, days 4 to 13 post laminectomy, versus vehicle
# Description: Focal demyelination in the dorsal column of the spinal cord was induced by the injection of 1% LPC solution. 12 week old C57BL/6 female mice were anesthetized using isoflurane and T10 laminectomies were performed. 1 μl of 1% LPC was infused into the dorsal column at a rate of 15 al/hour. At day 4, animals were randomized into treatment groups prior to treatment (2 animals were excluded due to surgical complications). […] Drugs were dissolved in DMSO and ethanol or corn oil and then diluted with sterile saline for injections. This experiment was done in a blinded manner: compounds were coded to ensure the researchers performing the experiments were unaware of the treatment being administered to each animal. […] Mice were anesthetized using ketamine/xylazine rodent cocktail and then euthanized by transcardial perfusion with 4% PFA, 2% glutaraldehyde, and 0.1 M sodium cacodylate. […] The number of myelinated axons per unit areas was counted from sections in the middle of each lesion and then averaged over each treatment group. […]
# Focal demyelination in the dorsal column of the spinal cord was induced by the injection of 1% LPC solution. […] The number of myelinated axons per unit area was counted from sections obtained from the middle of each lesion and then averaged over each treatment group. All sections within the lesion area were scored. […]
# [3] = 100 nm, 24 hours, versus DMSO control
smiles,measurement,setting,value
CCN(C/C=C\c1ccc(C2CCCCC2)c(Cl)c1)C1CCCCC1 [Cis-N-cyclohexyl-N-ethyl-3-(3-chloro-4-cyclohexylphenyl)prop-2-enylamine],zymostenol in mouse OPCs (FIG. 5),"[1]; 10 nM, 30 nM, 100 nM",accumulate zymostenol
same,cholesterol in OPCs (FIG. 1B),[1]; [3],produce lesser amounts of cholesterol
same,zymostenol in OPCs (FIG. 1B),[1]; [3],accumulate zymostenol
same,"myelin formation in the demyelinated lesion, electron microscopy (FIG. 7C)",[2],new myelin formation
same,number of toluidine Blue-stained newly myelinated fibers within the spinal cord (FIG. 7F),[2],significantly increased
